According to PubChem BioAssay (NCI):
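How tested: cells in 96-well plates exposed to compound for 48 hours at five concentrations. GI50: concentration for 50% inhibition of growth. Definition used: TGI = concentration required for complete inhibition of growth.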

How the values were obtained:
Test in all cases: NCI-60 cell line screen, 48 h
OVCAR-8 ovarian = test system: OVCAR-8 ovarian
K-562 leukemia = test system: K-562 leukemia
TK-10 renal = test system: TK-10 renal
U251 CNS = test system: U251 CNS
HOP-92 NSCLC = test system: HOP-92 NSCLC
RPMI-8226 leukemia = test system: RPMI-8226 leukemia
PC-3 prostate = test system: PC-3 prostate
786-0 renal = test system: 786-0 renal
NCI-H522 lung = test system: NCI-H522 lung
MOLT-4 leukemia = test system: MOLT-4 leukemia
HCC-2998 colon = test system: HCC-2998 colon
ACHN renal = test system: ACHN renal
HS 578T breast = test system: HS 578T breast
UACC-62 melanoma = test system: UACC-62 melanoma
NCI-H226 lung = test system: NCI-H226 lung
SK-MEL-28 melanoma = test system: SK-MEL-28 melanoma
A549 NSCLC = test system: A549 NSCLC
MDA-MB-435 = test system: MDA-MB-435
SK-OV-3 ovarian = test system: SK-OV-3 ovarian
A498 renal = test system: A498 renal
MALME-3M melanoma = test system: MALME-3M melanoma
RXF 393 renal = test system: RXF 393 renal
HOP-62 NSCLC = test system: HOP-62 NSCLC
HT29 colon = test system: HT29 colon
SF-539 CNS = test system: SF-539 CNS
SK-MEL-2 melanoma = test system: SK-MEL-2 melanoma
OVCAR-3 ovarian = test system: OVCAR-3 ovarian
NCI-H23 lung = test system: NCI-H23 lung
SNB-19 CNS = test system: SNB-19 CNS
SR leukemia = test system: SR leukemia
BT-549 breast = test system: BT-549 breast
UACC-257 melanoma = test system: UACC-257 melanoma
SN12C renal = test system: SN12C renal
DU-145 prostate = test system: DU-145 prostate
SK-MEL-5 melanoma = test system: SK-MEL-5 melanoma
IGROV1 ovarian = test system: IGROV1 ovarian
LOX IMVI melanoma = test system: LOX IMVI melanoma
OVCAR-5 ovarian = test system: OVCAR-5 ovarian
SNB-75 CNS = test system: SNB-75 CNS
OVCAR-4 ovarian = test system: OVCAR-4 ovarian
EKVX NSCLC = test system: EKVX NSCLC
KM12 colon = test system: KM12 colon
UO-31 renal = test system: UO-31 renal
HCT-15 colon = test system: HCT-15 colon
SF-295 CNS = test system: SF-295 CNS
SW-620 colon = test system: SW-620 colon
MCF7 breast = test system: MCF7 breast
NCI-H460 lung = test system: NCI-H460 lung
MDA-MB-231 breast = test system: MDA-MB-231 breast
CAKI-1 renal = test system: CAKI-1 renal
T-47D breast = test system: T-47D breast
COLO 205 colon = test system: COLO 205 colon
SF-268 CNS = test system: SF-268 CNS
HCT-116 colon = test system: HCT-116 colon
NCI/ADR-RES ovarian = test system: NCI/ADR-RES ovarian
CCRF-CEM leukemia = test system: CCRF-CEM leukemia

Cn1cccc1-c1cc(-c2ccc(Br)cc2)[nH]c(=O)c1C#N
GI50 (OVCAR-8 ovarian): > 100 µM
TGI (OVCAR-8 ovarian): > 100 µM
GI50 (K-562 leukemia): > 100 µM
TGI (K-562 leukemia): > 100 µM
GI50 (TK-10 renal): > 100 µM
TGI (TK-10 renal): > 100 µM
GI50 (U251 CNS): > 100 µM
TGI (U251 CNS): > 100 µM
GI50 (HOP-92 NSCLC): 27.8 µM
TGI (HOP-92 NSCLC): > 100 µM
GI50 (RPMI-8226 leukemia): > 100 µM
TGI (RPMI-8226 leukemia): > 100 µM
GI50 (PC-3 prostate): > 100 µM
TGI (PC-3 prostate): > 100 µM
GI50 (786-0 renal): > 100 µM
TGI (786-0 renal): > 100 µM
GI50 (NCI-H522 lung): 82.1 µM
TGI (NCI-H522 lung): > 100 µM
GI50 (MOLT-4 leukemia): 57.1 µM
TGI (MOLT-4 leukemia): > 100 µM
GI50 (HCC-2998 colon): > 100 µM
TGI (HCC-2998 colon): > 100 µM
GI50 (ACHN renal): > 100 µM
TGI (ACHN renal): > 100 µM
GI50 (HS 578T breast): > 100 µM
TGI (HS 578T breast): > 100 µM
GI50 (UACC-62 melanoma): 49.2 µM
TGI (UACC-62 melanoma): > 100 µM
GI50 (NCI-H226 lung): > 100 µM
TGI (NCI-H226 lung): > 100 µM
GI50 (SK-MEL-28 melanoma): > 100 µM
TGI (SK-MEL-28 melanoma): > 100 µM
GI50 (A549 NSCLC): > 100 µM
TGI (A549 NSCLC): > 100 µM
GI50 (MDA-MB-435): > 100 µM
TGI (MDA-MB-435): > 100 µM
GI50 (SK-OV-3 ovarian): > 100 µM
TGI (SK-OV-3 ovarian): > 100 µM
GI50 (A498 renal): 54.4 µM
TGI (A498 renal): > 100 µM
GI50 (MALME-3M melanoma): > 100 µM
TGI (MALME-3M melanoma): > 100 µM
GI50 (RXF 393 renal): > 100 µM
TGI (RXF 393 renal): > 100 µM
GI50 (HOP-62 NSCLC): > 100 µM
TGI (HOP-62 NSCLC): > 100 µM
GI50 (HT29 colon): > 100 µM
TGI (HT29 colon): > 100 µM
GI50 (SF-539 CNS): 89.3 µM
TGI (SF-539 CNS): > 100 µM
GI50 (SK-MEL-2 melanoma): > 100 µM
TGI (SK-MEL-2 melanoma): > 100 µM
GI50 (OVCAR-3 ovarian): 85.8 µM
TGI (OVCAR-3 ovarian): > 100 µM
GI50 (NCI-H23 lung): > 100 µM
TGI (NCI-H23 lung): > 100 µM
GI50 (SNB-19 CNS): > 100 µM
TGI (SNB-19 CNS): > 100 µM
GI50 (SR leukemia): > 100 µM
TGI (SR leukemia): > 100 µM
GI50 (BT-549 breast): 85.2 µM
TGI (BT-549 breast): > 100 µM
GI50 (UACC-257 melanoma): > 100 µM
TGI (UACC-257 melanoma): > 100 µM
GI50 (SN12C renal): > 100 µM
TGI (SN12C renal): > 100 µM
GI50 (DU-145 prostate): > 100 µM
TGI (DU-145 prostate): > 100 µM
GI50 (SK-MEL-5 melanoma): > 100 µM
TGI (SK-MEL-5 melanoma): > 100 µM
GI50 (IGROV1 ovarian): 77.2 µM
TGI (IGROV1 ovarian): > 100 µM
GI50 (LOX IMVI melanoma): > 100 µM
TGI (LOX IMVI melanoma): > 100 µM
GI50 (OVCAR-5 ovarian): > 100 µM
TGI (OVCAR-5 ovarian): > 100 µM
GI50 (SNB-75 CNS): 25.4 µM
TGI (SNB-75 CNS): > 100 µM
GI50 (OVCAR-4 ovarian): > 100 µM
TGI (OVCAR-4 ovarian): > 100 µM
GI50 (EKVX NSCLC): 34.5 µM
TGI (EKVX NSCLC): > 100 µM
GI50 (KM12 colon): > 100 µM
TGI (KM12 colon): > 100 µM
GI50 (UO-31 renal): 69.1 µM
TGI (UO-31 renal): > 100 µM
GI50 (HCT-15 colon): > 100 µM
TGI (HCT-15 colon): > 100 µM
GI50 (SF-295 CNS): > 100 µM
TGI (SF-295 CNS): > 100 µM
GI50 (SW-620 colon): > 100 µM
TGI (SW-620 colon): > 100 µM
GI50 (MCF7 breast): > 100 µM
TGI (MCF7 breast): > 100 µM
GI50 (NCI-H460 lung): > 100 µM
TGI (NCI-H460 lung): > 100 µM
GI50 (MDA-MB-231 breast): 82.5 µM
TGI (MDA-MB-231 breast): > 100 µM
GI50 (CAKI-1 renal): > 100 µM
TGI (CAKI-1 renal): > 100 µM
GI50 (T-47D breast): > 100 µM
TGI (T-47D breast): > 100 µM
GI50 (COLO 205 colon): > 100 µM
TGI (COLO 205 colon): > 100 µM
GI50 (SF-268 CNS): > 100 µM
TGI (SF-268 CNS): > 100 µM
GI50 (HCT-116 colon): > 100 µM
TGI (HCT-116 colon): > 100 µM
GI50 (NCI/ADR-RES ovarian): > 100 µM
TGI (NCI/ADR-RES ovarian): > 100 µM
GI50 (CCRF-CEM leukemia): > 100 µM
TGI (CCRF-CEM leukemia): > 100 µM
